According to patent US20250025473A1 (priority 2021, published 2025):
Like-named read-outs stand apart in the source and are kept apart here.

Experiments:
[1] = molecular target: T1, AKT3 (Homo sapiens, UniProt Q9Y243); test: HotSpot in vitro kinase assay, AKT3; assay type: biochemical
T1 construct: purchased Reaction Biology Corporation

[2] = molecular target: ABL1 (Homo sapiens, UniProt P00519); test: HotSpot in vitro kinase assay, ABL1; conditions: read-out: Compound IC50, ABL1; in vitro kinase activity
[3] = tested on: VSV-S (VSV pseudotyped with SARS-CoV-2 spike protein); assay type: cell-based
[4] = tested on: VSV-EBOV-GP; assay type: cell-based
[5] = molecular target: c-Src (Homo sapiens, UniProt P12931); test: HotSpot in vitro kinase assay, c-Src; conditions: read-out: Compound IC50, c-Src; in vitro kinase activity
[6] = tested on: VSV-G; assay type: cell-based
[7] = molecular target: EGFR (Homo sapiens, UniProt P00533); test: HotSpot in vitro kinase assay, EGFR; conditions: read-out: Compound IC50, EGFR; in vitro kinase activity
[8] = molecular target: T2, panel of 393 kinases (Homo sapiens, UniProt P19525); test: biochemical; conditions: CIMSS 10 μM, 10 μM ATP
T2 construct: purchased Reaction Biology Corporation

[9] = tested on: HSV-1 K26GFP; test: HSV capsid entry, GFP+ cells by confocal imaging; conditions: HaCat, CIMSS 10 μM, anti-Akt 2 μg/ml, cycloheximide 10 μg/ml

T2 sequence (P19525 whole entry): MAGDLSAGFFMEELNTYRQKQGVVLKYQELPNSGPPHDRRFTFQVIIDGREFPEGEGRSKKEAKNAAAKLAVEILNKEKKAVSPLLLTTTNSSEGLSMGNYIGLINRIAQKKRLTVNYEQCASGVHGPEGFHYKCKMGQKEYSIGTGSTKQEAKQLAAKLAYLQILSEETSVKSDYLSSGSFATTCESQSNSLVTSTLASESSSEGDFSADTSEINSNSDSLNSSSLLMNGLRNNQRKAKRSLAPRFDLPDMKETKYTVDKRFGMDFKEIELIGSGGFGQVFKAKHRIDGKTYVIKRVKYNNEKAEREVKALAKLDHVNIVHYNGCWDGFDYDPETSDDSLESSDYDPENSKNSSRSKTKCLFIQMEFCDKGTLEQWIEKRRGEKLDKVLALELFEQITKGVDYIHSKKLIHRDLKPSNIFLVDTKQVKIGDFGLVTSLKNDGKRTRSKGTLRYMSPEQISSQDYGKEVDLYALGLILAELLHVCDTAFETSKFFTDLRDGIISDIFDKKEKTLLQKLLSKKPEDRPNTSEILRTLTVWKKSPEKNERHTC
T1 sequence (Q9Y243 whole entry): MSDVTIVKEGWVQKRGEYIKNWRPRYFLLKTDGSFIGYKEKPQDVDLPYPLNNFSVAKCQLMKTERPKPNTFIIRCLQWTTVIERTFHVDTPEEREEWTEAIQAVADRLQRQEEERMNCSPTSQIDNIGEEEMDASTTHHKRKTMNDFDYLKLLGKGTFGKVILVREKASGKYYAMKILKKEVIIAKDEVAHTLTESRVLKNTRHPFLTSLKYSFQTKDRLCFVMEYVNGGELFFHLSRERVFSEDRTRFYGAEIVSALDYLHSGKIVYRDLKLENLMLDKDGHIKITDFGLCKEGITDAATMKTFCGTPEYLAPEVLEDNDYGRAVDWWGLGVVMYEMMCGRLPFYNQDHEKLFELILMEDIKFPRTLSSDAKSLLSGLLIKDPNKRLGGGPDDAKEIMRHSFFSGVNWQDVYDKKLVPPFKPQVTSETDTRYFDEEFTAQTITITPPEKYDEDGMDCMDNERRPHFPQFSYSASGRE
Sequence of c-Src (P12931 whole entry): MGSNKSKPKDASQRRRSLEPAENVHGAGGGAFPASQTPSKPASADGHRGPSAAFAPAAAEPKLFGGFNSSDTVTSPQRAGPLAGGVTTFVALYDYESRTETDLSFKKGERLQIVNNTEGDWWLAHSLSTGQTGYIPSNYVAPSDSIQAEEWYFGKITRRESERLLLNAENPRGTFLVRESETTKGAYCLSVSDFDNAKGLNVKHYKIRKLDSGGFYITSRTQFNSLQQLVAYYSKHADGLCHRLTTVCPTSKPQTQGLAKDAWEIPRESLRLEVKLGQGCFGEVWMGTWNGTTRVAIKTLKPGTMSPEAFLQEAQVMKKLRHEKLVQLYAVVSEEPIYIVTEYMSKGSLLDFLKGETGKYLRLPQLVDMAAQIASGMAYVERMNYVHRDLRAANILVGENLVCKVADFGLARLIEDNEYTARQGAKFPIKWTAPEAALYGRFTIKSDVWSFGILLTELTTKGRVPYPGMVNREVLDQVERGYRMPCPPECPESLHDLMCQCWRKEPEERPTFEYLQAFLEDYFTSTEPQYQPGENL
Sequence of EGFR (P00533 25-1210): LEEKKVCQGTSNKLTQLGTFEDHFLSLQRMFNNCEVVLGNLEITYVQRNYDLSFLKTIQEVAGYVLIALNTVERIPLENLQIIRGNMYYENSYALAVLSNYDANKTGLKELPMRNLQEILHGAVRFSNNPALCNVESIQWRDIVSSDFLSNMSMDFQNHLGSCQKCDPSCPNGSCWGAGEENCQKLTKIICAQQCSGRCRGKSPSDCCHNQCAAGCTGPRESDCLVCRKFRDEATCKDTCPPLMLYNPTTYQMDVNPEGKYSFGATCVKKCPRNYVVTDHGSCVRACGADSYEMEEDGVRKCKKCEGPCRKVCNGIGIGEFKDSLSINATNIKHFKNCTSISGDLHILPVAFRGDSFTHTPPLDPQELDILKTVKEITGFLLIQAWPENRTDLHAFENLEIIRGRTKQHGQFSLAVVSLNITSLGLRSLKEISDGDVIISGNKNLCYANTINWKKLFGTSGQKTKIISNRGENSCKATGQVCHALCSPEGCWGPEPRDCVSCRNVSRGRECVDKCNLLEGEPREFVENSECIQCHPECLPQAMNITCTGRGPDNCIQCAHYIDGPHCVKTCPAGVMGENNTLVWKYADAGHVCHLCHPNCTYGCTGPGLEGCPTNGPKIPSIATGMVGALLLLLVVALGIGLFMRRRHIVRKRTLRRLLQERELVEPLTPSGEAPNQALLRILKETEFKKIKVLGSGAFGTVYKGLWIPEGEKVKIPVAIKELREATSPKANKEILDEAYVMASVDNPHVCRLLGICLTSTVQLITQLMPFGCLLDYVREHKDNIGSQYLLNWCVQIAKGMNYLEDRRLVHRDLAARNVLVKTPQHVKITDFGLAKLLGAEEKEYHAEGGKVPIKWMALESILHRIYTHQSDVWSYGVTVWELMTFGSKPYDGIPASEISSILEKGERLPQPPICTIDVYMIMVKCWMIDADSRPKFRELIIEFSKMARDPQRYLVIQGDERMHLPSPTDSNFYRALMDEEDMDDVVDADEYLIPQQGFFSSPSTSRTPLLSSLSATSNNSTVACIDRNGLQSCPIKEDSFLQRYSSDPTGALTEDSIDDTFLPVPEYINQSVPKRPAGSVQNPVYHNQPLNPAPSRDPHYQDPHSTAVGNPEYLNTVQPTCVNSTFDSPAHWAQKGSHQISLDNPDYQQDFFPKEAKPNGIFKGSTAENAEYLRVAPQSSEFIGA
Sequence of ABL1 (P00519 whole entry): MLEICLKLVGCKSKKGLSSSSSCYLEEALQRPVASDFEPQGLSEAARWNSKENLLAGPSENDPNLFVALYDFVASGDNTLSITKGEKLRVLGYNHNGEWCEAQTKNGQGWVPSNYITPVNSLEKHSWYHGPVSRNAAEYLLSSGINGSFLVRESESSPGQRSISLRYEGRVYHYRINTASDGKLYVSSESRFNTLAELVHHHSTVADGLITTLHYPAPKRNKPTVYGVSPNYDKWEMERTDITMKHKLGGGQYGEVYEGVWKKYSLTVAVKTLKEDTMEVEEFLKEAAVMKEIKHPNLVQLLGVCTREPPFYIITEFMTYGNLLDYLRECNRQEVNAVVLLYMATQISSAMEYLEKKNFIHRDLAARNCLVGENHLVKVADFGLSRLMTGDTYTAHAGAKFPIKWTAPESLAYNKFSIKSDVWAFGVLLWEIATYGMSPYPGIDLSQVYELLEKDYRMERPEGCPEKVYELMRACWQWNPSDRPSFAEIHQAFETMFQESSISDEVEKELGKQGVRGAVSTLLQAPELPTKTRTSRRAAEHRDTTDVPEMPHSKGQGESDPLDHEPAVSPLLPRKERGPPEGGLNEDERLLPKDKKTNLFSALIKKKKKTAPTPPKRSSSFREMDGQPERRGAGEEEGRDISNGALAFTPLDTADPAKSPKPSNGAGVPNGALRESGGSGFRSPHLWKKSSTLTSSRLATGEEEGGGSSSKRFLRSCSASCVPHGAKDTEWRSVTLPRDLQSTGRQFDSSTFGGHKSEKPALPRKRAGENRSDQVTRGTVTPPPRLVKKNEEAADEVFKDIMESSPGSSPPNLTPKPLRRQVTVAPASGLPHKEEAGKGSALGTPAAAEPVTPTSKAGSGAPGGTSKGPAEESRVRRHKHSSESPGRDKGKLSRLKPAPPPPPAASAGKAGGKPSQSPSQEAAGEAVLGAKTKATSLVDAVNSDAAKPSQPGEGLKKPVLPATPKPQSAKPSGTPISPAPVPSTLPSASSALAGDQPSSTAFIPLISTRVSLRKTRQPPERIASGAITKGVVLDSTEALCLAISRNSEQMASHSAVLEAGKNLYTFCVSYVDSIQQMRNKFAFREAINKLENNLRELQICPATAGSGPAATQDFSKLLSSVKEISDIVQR

Structure (SMILES): CO[C@@H]1[C@H](N(C)C(=O)CCC(=O)NCc2cn(CCCS(=O)(=O)[O-])nn2)C[C@H]2O[C@]1(C)n1c3ccccc3c3c4c(c5c6ccccc6n2c5c31)C(=O)NC4.[Na+] [CIMSS]
- IC50 ([1]; in vitro kinase activity, read-out: Compound IC50, AKT3): 157 nM
- inhibition at 10 µM ([1]; read-out: inhibition of Akt3): > 75%
- IC50 [2]: 143 nM
- VSV-S infection (plaques or viral yields) [3]: inhibited
- VSV-S infection, percentage of GFP+ cells [3]: significantly reduced
- VSV-EBOV-GP infection, percentage of GFP+ cells [4]: no effect
- IC50 [5]: 11.9 nM
- VSV-G infection, percentage of GFP+ cells [6]: no effect
- IC50 [7]: 1610 nM
- remaining activity at 10 µM ([8]; read-out: % Enzyme Activity (relative to DMSO controls) CIMSS (10 μM) Data 1, kinase EIF2AK2, Data 1): 9.89%
- remaining activity at 10 µM ([8]; read-out: % Enzyme Activity (relative to DMSO controls) CIMSS (10 μM) Data 2, kinase EIF2AK2, Data 2): 9.34%
- percentage of GFP+ cells ([9]; 4 h post-temperature shift): significantly reduced
- percentage of GFP+ cells ([9]; one hour post temperature shift): significantly decreased
